One assay deals with ADA-M R5 HIV. Put plainly: Treatment of PBMCs infected with ADA-M R5 HIV strain. The format is cell-based. The protocol: For that purpose, peripheral blood mononuclear cells (PBMCs) of five healthy donors have been isolated by centrifugation on a FICOLL gradient. The cells have then been cultivated at 37° C., 5% CO2 to a density of 1×10^6 cells/mL in RPMI Glutamax medium (Life Technologies Ref 61870-010) supplemented with 10% fetal calf serum (FCS) (Thermo Fischer Ref SV30160.03) 1000 U/mL of IL2 (Peprotech Ref 200-02) and […] of PHA (Roche ref 1249738). Three days later, cells have been pooled and resuspended to a density of 1×10^6 cells/mL in RPMI Glutamax medium supplemented with 10% fetal calf serum (FCS) 1000 U/mL of IL-2 and distributed in 12 wells plates (Falcon Ref 353043) with 1.2 mL/well (4 wells per condition).
HIV-1 infection has been performed with 1 ng of Ada-M R5 HIV strain/well. Cells were treated for 6 days with 1.2 mL/well of 60 μM solution of 8-chloro-N-[4-(trifluoromethoxy)phenyl]quinolin-2-amine or with 0.12% DMSO (Sigma Ref D4818 as negative control).

Assay [1] concerns HIV-1 and HIV-2 T cell-tropic laboratory strains as well as clinical isolates of different subtypes. The note with it: HIV-1 and HIV-2 laboratory strains and clinical isolates; cited from earlier work.

Take `FC(F)(F)Oc1ccc(Nc2ccc3cccc(Cl)c3n2)cc1` [8-chloro-N-[4-(trifluoromethoxy)phenyl]quinolin-2-amine]: the “effect on viruses in infected PBMCs” value with ADA-M R5 HIV is listed as “removal of the viruses”. Besides, the “inhibition of replication in PBMC, active concentrations” value in assay [1] is “nM concentrations range”.

Source of the values: patent US11441181B2, “miRNA-124 as a biomarker” (priority 2013, dated 2022).
